# Measured values as given in PubChem BioAssay AID2060604 (Molecular Pharmacology Branch, DTP, NCI, 2025).
# Where “and” joins values, the source holds several entries; their conditions need not be identical. Equal values may be shown once.
# Tested on: 379773-124-R-J2-PDC complex spheroids, viability % test/control
# Assay: Anticancer human tumor 379773-124-R-J2-PDC patient-derived endometrial carcinoma cell line growth inhibition [CLK]
# Conditions: for viability, T/C: stronger effect = lower value
# In short: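 Patient-derived tumor cells grown as complex spheroids with HUVEC endothelial cells and mesenchymal stem cells, treated with drug combinations. Concentrations descend in half-log steps from near clinical Cmax, or from 10 microM if Cmax unknown.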
# [1] = curve of first compound, second compound 0.0316 µM
# [2] = curve of first compound, second compound 0.1 µM
# [3] = curve of first compound, second compound 0.316 µM
# [4] = curve of first compound, second compound 1 µM
# [5] = curve of first compound, second compound 3.16 µM
# [6] = curve of first compound, second compound 10 µM
# [7] = second compound 0.0316 µM, first compound 0.0316 µM
# [8] = second compound 0.0316 µM, first compound 0.1 µM
# [9] = second compound 0.0316 µM, first compound 0.316 µM
# [10] = second compound 0.0316 µM, first compound 1 µM
# [11] = second compound 0.1 µM, first compound 0.0316 µM
# [12] = second compound 0.1 µM, first compound 0.1 µM
# [13] = second compound 0.1 µM, first compound 0.316 µM
# [14] = second compound 0.1 µM, first compound 1 µM
# [15] = second compound 0.316 µM, first compound 0.0316 µM
# [16] = second compound 0.316 µM, first compound 0.1 µM
# [17] = second compound 0.316 µM, first compound 0.316 µM
# [18] = second compound 0.316 µM, first compound 1 µM
# [19] = second compound 1 µM, first compound 0.0316 µM
# [20] = second compound 1 µM, first compound 0.1 µM
# [21] = second compound 1 µM, first compound 0.316 µM
# [22] = second compound 1 µM, first compound 1 µM
# [23] = second compound 3.16 µM, first compound 0.0316 µM
# [24] = second compound 3.16 µM, first compound 0.1 µM
# [25] = second compound 3.16 µM, first compound 0.316 µM
# [26] = second compound 3.16 µM, first compound 1 µM
# [27] = second compound 10 µM, first compound 0.0316 µM
# [28] = second compound 10 µM, first compound 0.1 µM
# [29] = second compound 10 µM, first compound 0.316 µM
# [30] = second compound 10 µM, first compound 1 µM
# 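Also: compound exposure lasted seven days before the viability readout.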
# 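For viability, T/C in this document: 100% = DMSO vehicle control wells.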
compound,measurement,setting,value
Cn1ncnc1[C@H]1c2n[nH]c(=O)c3cc(F)cc(c23)N[C@@H]1c1ccc(F)cc1,"viability, T/C",compound 0.000316 µM,97.3% and 82.2%
same,"viability, T/C",compound 0.001 µM,100% and 79.8%
same,"viability, T/C",compound 0.00316 µM,86.3% and 79.5%
same,"viability, T/C",compound 0.01 µM,86.8% and 79.1%
same,"viability, T/C",compound 0.0316 µM,72.3% and 49%
same,"viability, T/C",compound 0.1 µM,38.9% and 26.1%
same,IC50,curve of compound,0.0676 µM and 0.0305 µM
Nc1ccccc1NC(=O)c1ccc(CNC(=O)OCc2cccnc2)cc1 + CNC(=O)c1ccc(Nc2nc(OC3CCCC3)c3c(-c4ccc5nc(C)oc5c4)c[nH]c3n2)c(OC)c1,IC50,[1],1.82 µM
same,IC50,[2],< 0.0316 µM
same,IC50,[3],< 0.0316 µM
same,IC50,[4],< 0.0316 µM
same,IC50,[5],< 0.0316 µM
same,IC50,[6],< 0.0316 µM
same,"viability, T/C",[7],87.7%
same,"viability, T/C",[8],81.9%
same,"viability, T/C",[9],95.7%
same,"viability, T/C",[10],70.6%
same,"viability, T/C","second compound 0.0316 µM, first compound 3.16 µM",29.8%
same,"viability, T/C","second compound 0.0316 µM, first compound 10 µM",7.39%
same,"viability, T/C",[11],32.2%
same,"viability, T/C",[12],40.1%
same,"viability, T/C",[13],36.5%
same,"viability, T/C",[14],27.8%
same,"viability, T/C","second compound 0.1 µM, first compound 3.16 µM",11.5%
same,"viability, T/C","second compound 0.1 µM, first compound 10 µM",5.65%
same,"viability, T/C",[15],44.5%
same,"viability, T/C",[16],40.2%
same,"viability, T/C",[17],27.7%
same,"viability, T/C",[18],25.4%
same,"viability, T/C","second compound 0.316 µM, first compound 3.16 µM",15.3%
same,"viability, T/C","second compound 0.316 µM, first compound 10 µM",4.66%
same,"viability, T/C",[19],39.1%
same,"viability, T/C",[20],29.2%
same,"viability, T/C",[21],28.4%
same,"viability, T/C",[22],20.4%
same,"viability, T/C","second compound 1 µM, first compound 3.16 µM",14.3%
same,"viability, T/C","second compound 1 µM, first compound 10 µM",3.91%
same,"viability, T/C",[23],31.8%
same,"viability, T/C",[24],30.1%
same,"viability, T/C",[25],25.1%
same,"viability, T/C",[26],21.4%
same,"viability, T/C","second compound 3.16 µM, first compound 3.16 µM",12.9%
same,"viability, T/C","second compound 3.16 µM, first compound 10 µM",3.52%
same,"viability, T/C",[27],38.7%
same,"viability, T/C",[28],30.2%
same,"viability, T/C",[29],25.2%
same,"viability, T/C",[30],17.3%
same,"viability, T/C","second compound 10 µM, first compound 3.16 µM",12.2%
same,"viability, T/C","second compound 10 µM, first compound 10 µM",2.97%
COc1c(OCCCN2CCOCC2)ccc2c3n(c(=NC(=O)c4cnc(N)nc4)nc12)CCN3 + CNC(=O)c1ccc(Nc2nc(OC3CCCC3)c3c(-c4ccc5nc(C)oc5c4)c[nH]c3n2)c(OC)c1,IC50,[1],0.0595 µM
same,IC50,[2],< 0.00316 µM
same,IC50,[3],< 0.00316 µM
same,IC50,[4],< 0.00316 µM
same,IC50,[5],< 0.00316 µM
same,IC50,[6],< 0.00316 µM
same,"viability, T/C","second compound 0.0316 µM, first compound 0.00316 µM",81.8%
same,"viability, T/C","second compound 0.0316 µM, first compound 0.01 µM",85.6%
same,"viability, T/C",[7],65%
same,"viability, T/C",[8],37.5%
same,"viability, T/C",[9],6.4%
same,"viability, T/C",[10],2.99%
same,"viability, T/C","second compound 0.1 µM, first compound 0.00316 µM",31.6%
same,"viability, T/C","second compound 0.1 µM, first compound 0.01 µM",29%
same,"viability, T/C",[11],25.3%
same,"viability, T/C",[12],14.5%
same,"viability, T/C",[13],4.25%
same,"viability, T/C",[14],1.91%
same,"viability, T/C","second compound 0.316 µM, first compound 0.00316 µM",34.9%
same,"viability, T/C","second compound 0.316 µM, first compound 0.01 µM",32.7%
same,"viability, T/C",[15],19.5%
same,"viability, T/C",[16],10.1%
same,"viability, T/C",[17],3.08%
same,"viability, T/C",[18],1.56%
same,"viability, T/C","second compound 1 µM, first compound 0.00316 µM",38.9%
same,"viability, T/C","second compound 1 µM, first compound 0.01 µM",25.7%
same,"viability, T/C",[19],17.8%
same,"viability, T/C",[20],7.48%
same,"viability, T/C",[21],1.73%
same,"viability, T/C",[22],1.03%
same,"viability, T/C","second compound 3.16 µM, first compound 0.00316 µM",28.3%
same,"viability, T/C","second compound 3.16 µM, first compound 0.01 µM",24.1%
same,"viability, T/C",[23],15.3%
same,"viability, T/C",[24],8.87%
same,"viability, T/C",[25],2.29%
same,"viability, T/C",[26],0.59%
same,"viability, T/C","second compound 10 µM, first compound 0.00316 µM",22.5%
same,"viability, T/C","second compound 10 µM, first compound 0.01 µM",21.5%
same,"viability, T/C",[27],16.8%
same,"viability, T/C",[28],7.19%
same,"viability, T/C",[29],1.54%
same,"viability, T/C",[30],0.67%
CCCS(=O)(=O)Nc1ccc(F)c(C(=O)c2c[nH]c3ncc(-c4ccc(Cl)cc4)cc23)c1F,"viability, T/C",compound 0.0316 µM,83.1% and 93.8%
same,"viability, T/C",compound 0.1 µM,88.5% and 84.4%
same,"viability, T/C",compound 0.316 µM,85.2% and 98.8%
same,"viability, T/C",compound 1 µM,100% and 90.3%
same,"viability, T/C",compound 3.16 µM,81.5% and 78.6%
same,"viability, T/C",compound 10 µM,64.6% and 53.6%
same,IC50,curve of compound,> 10 µM
